In patent US20260335223A1, “Topical Copolymer Formulations for Hydrophobic Drug Delivery” (1376683 B.C. LTD, priority 2023, published 2026):
In brackets after ≈: the same amount, converted by molar mass.

How the values were obtained:
[1] = Limit of aqueous solubility with/without PCL25 (HPLC or UV/VIS); type: physicochemical; conditions: water
Protocol: Aqueous solubility studies involving diblock copolymer PCL25 (63:37 MePEG:PCL MW 7900 Da) were carried out as follows. 1 mg of drug (either paclitaxel, capsaicin or curcumin) was added to glass vials, designated as either “control” or “diblock copolymer”. Diblock copolymer was omitted from control vials and 100 mg PCL25 was added to diblock copolymer vials. The contents of all vials were then dissolved in 300 microlitres of acetonitrile. The contents were dried at 60 °C for two hours and then 1 mL of warm water (40 °C) was added with vortexing for five minutes. To determine the limit of drug solubility, the contents of each vial were then placed in a microcentrifuge tube and centrifuged at 14000×g for 3 minutes to sediment any undissolved solids. The supernatant was diluted 50% in acetonitrile and the drug was quantitated by HPLC for paclitaxel and capsaicin or by UV/VIS spectrometry (420 nm) for curcumin after 100 fold dilution in acetonitrile for this drug. HPLC conditions were detection at 228 nm for both drugs and a mobile phase of 60:40 (paclitaxel) or 50:50 (capsaicin) acetonitrile:water flowing at 1 mL/min. Calibration standard for all drugs were run in acetonitrile.

[2] = background statement; cited from earlier work
[3] = Preparation of homogenous aqueous carboxymethyl cellulose (CMC) gel; type: physicochemical
Text: This Example illustrates that DBC3333 allowed for CBD, CBN, finasteride and docetaxel to be prepared within aqueous carboxymethyl cellulose (CMC) gels for topical use. […]

[4] = Skin permeation, Franz diffusion cell; conditions: 3 hours
Text: To collect the data illustrated in this Example, fresh pig skin is placed on a Franz diffusion cell and the formulation of interest is applied to the outer skin surface. After three hours the cell is dismantled and the exposed circular area excised. […] The amount of drug in each section is then quantitated and expressed at mass of drug/gram of tissue.
For cannabinoid aqueous gel preparation for skin permeation study and therapeutic efficacy studies, a water-based gel comprised of water, phenoxyethanol, ethylhexyl glycerin, acrylates/C10-30 alkyl acrylate crosspolymer, sodium hydroxide and allantoin, was used as the gel base. Gel base and diblock copolymer were weighed, mixed together and heated using a microwave for 4 seconds. A homogenous gel containing diblock copolymer was achieved via levigation of the mixture. Gel base without diblock copolymer was weighed and used for the control formula. Commercial cannabinoid-containing extracts containing known quantities of cannabinoid were weighed and dissolved in a pre-weighed amount of cacao butter over 45 °C heat. The cacao butter cannabinoid mixture was then weighed and incorporated into the gel base, with or without diblock copolymer, via levigation to produce the final gel samples. Cannabinoid content of the final gel samples was analyzed using HPLC. […] Gel samples were stored in air-tight containers at 4 °C until the time of use.
For carboxymethyl cellulose (CMC) gel and Glaxal® base preparation for skin permeation study of cannabidiol (CBD), curcumin, capsaicin and finasteride, CMC gel was made using medium viscosity CMC as a 2% w/v aqueous solution following overnight stirring. […] For CMC preparations containing DBC, DBC was weighed into a glass vial and a small volume of the drug of interest in acetonitrile:methanol (50:50) was added to dissolve all. The solution was then dried for 2 hours in a warm oven (50 °C). In all cases the ratio of DBC:drug was 95:5. A known weight of CMC gel was then added to the warmed vial containing the dried DBC/drug mixture and vortexed to disperse and dissolve all drug. Glaxal® base was used as received. Glaxal® base containing drug was prepared by first weighing drug and dissolving in a known volume of ethanol or methanol. The ethanol or methanol drug solution was then added to a weighed amount of Glaxal® base followed by levigation of the mixture. For CBD, capsaicin, docetaxel and finasteride, it was not possible to prepare CMC gels without the use of DBC, due to drug insolubility. Therefore Glaxal® base preparations containing these drugs were employed as DBC-free comparison groups (control) for skin permeation studies.
For carboxymethyl cellulose (CMC) gel and Glaxal® base preparation for skin permeation study of docetaxel, 2% CMC gel was prepared as described above. Docetaxel (DTX) 6 mg was weighed into 190 μL of acetonitrile and 10 μL of 3H radiolabeled DTX was added. Then 66 μL (i.e., 2 mg of drug) was pipetted into a vial with 40 mg of DBC to dissolve all. The contents were dried down and 1 mL of warm 2% CMC gel was added with vortexing to dissolve all DBC and drug as a micellar solution. For Glaxal® paste 66 μL of the drug solution was dried down to approximately 20 μL and 1 gram of Glaxal® base added to disperse the drug.
Fresh pig skin was obtained from a butcher and defatted to 5 mm thickness and shaved. 2 cm^2 pieces were cut with scissors and placed on Franz diffusion cells filled with PBS and clamped. 100 mg of each formulation was weighed and placed on top of the tissue and capped. The cells were placed in a 37 °C humid incubator for three hours and then dismantled. The tissue was washed three times with PBS and the centre drug-loaded circle of tissue was cut out with scissors and snap frozen. Tissues were sectioned by cryosectioning into 50 μm cuts pooled into groups of five.

[5] = Aqueous solubility with/without diblock copolymer (visual, film rehydration)
Protocol: In these studies the cannabinoid and diblock copolymer are dissolved in ethanol and dried to a film. Warm water is added and solubility is assessed by an optically clear solution or via HPLC or UV/Vis spectrophotometry.
Specific methodologies for aqueous solubility studies were as follows. Drug solutions having a concentration of 10 mg/mL were prepared by weighing drug and dissolving in an appropriate amount of ethanol in glass vials. Control drug samples (no diblock copolymer) were prepared by measuring 1 mL of room temperature distilled water in a glass vial and adding an appropriate volume of 10 mg/mL ethanol drug solution, followed by gentle mixing.
Drug samples with diblock copolymer (60:40 MePEG: PLLA, MW 3333 Da “DBC3333”; 57:43 MePEG:PCL, MW 1320 Da “[COMPOUND LEFT OUT]”; 40:60 MePEG:PCL, MW 1890 Da “PCL10”; 30:70 MePEG:PCL, MW 12000 Da “PCL61”) were prepared by weighing diblock copolymer into glass vials then adding 800 microlitres ethanol followed by an appropriate volume of 10 mg/mL ethanol drug solution. The diblock copolymer was dissolved in the ethanol solution via gentle mixing and the solvent was then evaporated via warm oven heating at approximately 50 °C. Once completely dry, 1 ml distilled water was added to the vials followed by gentle mixing. All vials were capped and left at room temperature for 12 hours, at which time the vials were photographed for evidence of precipitation.

[6] = Curcumin release from PVA film; type: physicochemical; conditions: for Curcumin released from PVA film: by 2 hours
Protocol: The 88% hydrolyzed version of PVA was used with a molecular weight of between 100000 and 150000 daltons. PVA was dissolved in water at 10% w/v by heating to 90 °C for one hour and then cooled. Separately, 40 mg of diblock copolymer DBC3333 was weighed into a glass vial and 100 μL of curcumin solution (10 mg/mL in ethanol) was added to 2 mL of the 10% PVA solution with mixing to give the non diblock casting solutions. Alternatively, 100 μL of the curcumin solution was added to 40 mg of diblock copolymer to dissolve it and then this was mixed with 2 mL of PVA solution. These give PVA films containing 20% diblock with approximately 0.5% curcumin (1 mg curcumin per film). The films were cast in small petri dishes and air dried at 37 °C for 4 hours.
This observational solubilization experiment added 2 mL of water to the film at t=0 and then at 5, 10, 25 mins the liquid was removed into a test tube for observation.
A second set of the same films were prepared and used for a drug release experiment whereby 10 mL of PBS (10 mM pH 7.4) was added to the films and at specified time points, 100 μL of solution was collected and added to 400 μL of water. The absorbance of these solutions was then measured at 420 nm by uv/vis absorbance.

osteoarthritis = test: Therapeutic efficacy case reports, osteoarthritis (VAS pain); type: in vivo, human
Protocol: (§1) In all cases, therapeutic efficacy studies were carried out with volunteer participants under the supervision of a healthcare practitioner. In all cases, informed consent was obtained. Participants were blinded to the DBC content of the gel samples provided. Participants were offered samples of control cannabinoid gel (no DBC) and asked to apply to the affected area twice daily and as needed for one week. Participants were told to maintain adherence to any prescribed medications while using the cannabinoid gel. Participants were contacted immediately after the one week treatment period for assessment. Following a washout period ranging from 4 to 12 weeks, participants were offered samples of DBC cannabinoid gel and asked to apply in the same manner, twice daily and as needed for one week, while maintaining adherence to any prescribed medications. Participants were contacted immediately after the one week treatment period for assessment. Efficacy was assessed using average daily 10-point visual analogue scale (VAS) pain score prior to beginning treatment and immediately after treatment. Participants were also asked to report all adverse effects experienced, if any, such as skin irritation, skin rash, localized or diffuse discomfort or pain, dizziness, fatigue, impaired concentration, feelings of euphoria or dysphoria, or other psychotropic effects.

rheumatoid arthritis = test: Therapeutic efficacy case report, rheumatoid arthritis (VAS pain); type: in vivo, human
Protocol: as §1

[7] = with diblock copolymer PCL25 100 mg/mL
[8] = topical, with DBC3333 vs formulation without
[9] = control, no diblock copolymer, drug 1 μg/mL
[10] = control, no diblock copolymer, drug 10 μg/mL
[11] = control, no diblock copolymer, drug 100 μg/mL
[12] = control, no diblock copolymer, drug 250 μg/mL
[13] = control, no diblock copolymer, drug 500 μg/mL
[14] = control, no diblock copolymer, drug 1000 μg/mL
[15] = diblock 0 mg/ml, drug 0.5 mg/ml
[16] = diblock (name withheld) 50 mg/ml, drug 1 mg/ml
[17] = diblock (name withheld) 50 mg/ml, drug 2 mg/ml
[18] = diblock (name withheld) 50 mg/ml, drug 3 mg/ml
[19] = diblock (name withheld) 50 mg/ml, drug 4 mg/ml
[20] = with DBC3333 20 mg/mL, drug 250 μg/mL
[21] = with DBC3333 20 mg/mL, drug 500 μg/mL
[22] = with DBC3333 20 mg/mL, drug 1000 μg/mL
[23] = with DBC3333 20 mg/mL, drug 2000 μg/mL
[24] = with DBC3333 20 mg/mL, drug 3000 μg/mL
[25] = with DBC3333 50 mg/mL, drug 1000 μg/mL
[26] = with DBC3333 50 mg/mL, drug 2000 μg/mL
[27] = with DBC3333 50 mg/mL, drug 3000 μg/mL
[28] = control, no diblock copolymer, drug 300 μg/mL
[29] = with DBC3333 50 mg/mL, drug 300 μg/mL
[30] = with DBC3333 50 mg/mL, drug 600 μg/mL
[31] = control, no diblock copolymer, drug 600 μg/mL

With CC(=O)O[C@H]1C(=O)[C@@]2(C)[C@H]([C@H](OC(=O)c3ccccc3)[C@]3(O)C[C@H](OC(=O)[C@H](O)[C@@H](NC(=O)c4ccccc4)c4ccccc4)C(C)=C1C3(C)C)[C@]1(OC(C)=O)CO[C@@H]1C[C@@H]2O [Paclitaxel, paclitaxel] the Solubility ([1]; control, no diblock copolymer) was 2 µg/mL (≈ 2.34 µM) and the Solubility [1, 7] was 488 µg/mL (≈ 571 µM).

In the case of CCCCCc1cc(O)c2c(c1)OC(C)(C)c1ccc(C)cc1-2 [CBN, cannabinol], the Water solubility [2] is listed as roughly 1 µg/mL, the “Preparation of homogenous CMC gel” value ([3]; with DBC3333) is listed as “allowed” and the “Preparation of homogenous CMC gel” value ([3]; without diblock copolymer) is listed as “not possible to prepare homogenous CMC gel preparations”. The Skin permeation [4, 8] was “enhanced skin permeation”.

In the case of CCCCCc1cc(O)c2c(c1)OC(C)(C)[C@@H]1CCC(C)=C[C@@H]21 [THC, tetrahydrocannabinol], the Water solubility [2] is listed as roughly 1 µg/mL, the Aqueous solubility [5, 9] is listed as “Insol” and the Aqueous solubility [5, 10] is listed as “Insol”. For the same compound, the Aqueous solubility [5, 11] was “Insol”, the Aqueous solubility [5, 12] was “Insol” and the Aqueous solubility [5, 13] was “Insol”. For the same compound, the Aqueous solubility [5, 14] was “Insol”, the Aqueous solubility ([5]; control, no diblock copolymer, drug 2000 μg/mL) was “Insol” and the Solubility [5, 15] was “Insol”. For the same compound, the Solubility ([5]; diblock 0 mg/ml, drug 1 mg/ml) was “Insol”, the Solubility [5, 16] was “soluble” and the Solubility [5, 17] was “soluble”. The Solubility [5, 18] was “soluble”, the Solubility [5, 19] was “Soluble” and the Aqueous solubility [5, 20] was “Soluble”. The Aqueous solubility [5, 21] was “Soluble”, the Aqueous solubility [5, 22] was “Partially” and the Aqueous solubility [5, 23] was “Insol”. For the same compound, the Aqueous solubility [5, 24] was “Insol”, the Aqueous solubility ([5]; with DBC3333 50 mg/mL, drug 500 μg/mL) was “Soluble” and the Aqueous solubility [5, 25] was “Soluble”. The Aqueous solubility [5, 26] was “Soluble”, the Aqueous solubility [5, 27] was “Partially” and the Aqueous solubility ([5]; with DBC3333 50 mg/mL, drug 4000 μg/mL) was “Insol”. For the same compound, the Skin permeation [4, 8] was “enhanced skin permeation”.

For COc1cc(/C=C/C(=O)CC(=O)/C=C/c2ccc(O)c(OC)c2)ccc1O [Curcumin, curcumin], the Solubility ([1]; control, no diblock copolymer) was less than 1 µg/mL, the Solubility [1, 7] was 1000 µg/mL (≈ 2710 µM) and the “Curcumin release rate from PVA film” value ([6]; DBC3333 20% w/w to PVA vs no diblock) was “much faster”. For the same compound, the “Curcumin released from PVA film” value ([6]; DBC3333 20% w/w to PVA) was “all drug released”, the “Yellow colour in dish (observational solubilization)” value ([6]; diblock containing film vs no diblock film) was “markedly stronger” and the “Curcumin released from PVA film” value ([6]; no diblock copolymer, room temperature) was 6%. For the same compound, the Skin permeation [4, 8] was “enhanced skin permeation”.

For CCCCCc1cc(O)c(C/C=C(\C)CCC=C(C)C)c(O)c1 [CBG, cannabigerol], the Water solubility [2] is given as roughly 1 µg/mL, the Aqueous solubility [5, 28] is given as “Insol” and the Aqueous solubility [5, 29] is given as “Soluble”. For the same compound, the Aqueous solubility [5, 30] was “Soluble”, the Aqueous solubility [5, 25] was “Soluble” and the Aqueous solubility [5, 26] was “Partially”. The Aqueous solubility [5, 27] was “Insol”.

In the case of C=C(C)[C@@H]1CCC(C)=C[C@H]1c1c(O)cc(CCCCC)cc1O [CBD, cannabidiol], the Water solubility [2] is listed as roughly 1 µg/mL, the “Preparation of homogenous CMC gel” value ([3]; with DBC3333) is listed as “allowed” and the “Preparation of homogenous CMC gel” value ([3]; with diblock copolymer (name withheld)) is listed as “allowed”. The “Preparation of homogenous CMC gel” value ([3]; without diblock copolymer) was “not possible to prepare homogenous CMC gel preparations”, the Aqueous solubility [5, 28] was “Insol” and the Aqueous solubility [5, 31] was “Insol”. For the same compound, the Aqueous solubility [5, 14] was “Insol”, the Solubility [5, 15] was “Insol” and the Solubility ([5]; diblock 0 mg/ml, drug 1 mg/ml) was “Insol”. The Solubility [5, 16] was “soluble”, the Solubility [5, 17] was “soluble” and the Solubility [5, 18] was “Partially”. The Solubility [5, 19] was “Insol”, the Aqueous solubility [5, 29] was “Soluble” and the Aqueous solubility [5, 30] was “Soluble”. The Aqueous solubility [5, 25] was “Soluble”, the Aqueous solubility [5, 26] was “Partially” and the Aqueous solubility [5, 27] was “Insol”. The Skin permeation ([4]; CMC gel with diblock copolymer (name withheld) vs identical CBD content in Glaxal base) was “enhanced skin permeation” and the Skin permeation [4, 8] was “enhanced skin permeation”.

In the case of CCCCCc1cc(O)c2c(c1)OC(C)(CCC=C(C)C)C=C2 (centres unmarked) [CBC, cannabichromene], the Water solubility [2] is listed as roughly 1 µg/mL.

For CC(=O)O[C@@]12CO[C@@H]1C[C@H](O)[C@@]1(C)C(=O)[C@H](O)C3=C(C)[C@@H](OC(=O)[C@H](O)[C@@H](NC(=O)OC(C)(C)C)c4ccccc4)C[C@@](O)([C@@H](OC(=O)c4ccccc4)[C@H]21)C3(C)C [docetaxel], the “Preparation of homogenous CMC gel” value ([3]; with DBC3333) was “allowed”, the “Preparation of homogenous CMC gel” value ([3]; without diblock copolymer) was “not possible to prepare homogenous CMC gel preparations” and the Skin permeation [4, 8] was “enhanced skin permeation”.

For CC(=O)Nc1ccc(O)cc1 [acetaminophen], the “Participant's description of efficacy/pain” value (osteoarthritis; Case 1) was “little to no pain relief or prevention of pain during or after exercise”.

For CC(C)(C)NC(=O)[C@H]1CC[C@H]2[C@@H]3CC[C@H]4NC(=O)C=C[C@]4(C)[C@H]3CC[C@]12C [finasteride], the “Preparation of homogenous CMC gel” value ([3]; with DBC3333) was “allowed”, the “Preparation of homogenous CMC gel” value ([3]; without diblock copolymer) was “not possible to prepare homogenous CMC gel preparations” and the Aqueous solubility [5, 28] was “Insol”. For the same compound, the Aqueous solubility [5, 31] was “Insol”, the Aqueous solubility [5, 14] was “Insol” and the Aqueous solubility [5, 29] was “Soluble”. For the same compound, the Aqueous solubility [5, 30] was “Partially”, the Aqueous solubility [5, 25] was “Insol” and the Aqueous solubility [5, 26] was “Insol”. The Aqueous solubility [5, 27] was “Insol” and the Skin permeation [4, 8] was “enhanced skin permeation”.

In the case of CCCCCc1cc2c(c(O)c1C(=O)O)[C@@H]1C=C(C)CC[C@H]1C(C)(C)O2 [THCA, tetrahydrocannabinolic acid], the Aqueous solubility [5, 9] is reported as “Soluble”, the Aqueous solubility [5, 10] is reported as “Insol” and the Aqueous solubility [5, 11] is reported as “Insol”. The Aqueous solubility [5, 12] was “Insol”, the Aqueous solubility [5, 13] was “Insol” and the Aqueous solubility [5, 14] was “Insol”. For the same compound, the Solubility [5, 15] was “Insol”, the Solubility ([5]; diblock 0 mg/ml, drug 1 mg/ml) was “Insol” and the Solubility [5, 16] was “soluble”. The Solubility [5, 17] was “soluble”, the Solubility [5, 18] was “soluble” and the Solubility [5, 19] was “Soluble”. The Aqueous solubility [5, 20] was “Soluble”, the Aqueous solubility [5, 21] was “Soluble” and the Aqueous solubility [5, 22] was “Soluble”. For the same compound, the Aqueous solubility [5, 23] was “Partially”, the Aqueous solubility [5, 24] was “Insol” and the Skin permeation [4, 8] was “enhanced skin permeation”.

For CC(C)Cc1ccc(C(C)C(=O)O)cc1 (centres unmarked) [ibuprofen], the “Participant's description of efficacy” value (rheumatoid arthritis; Case 4) was “mildly effective”, the “VAS pain level after ibuprofen 400 mg” value (rheumatoid arthritis; Case 4, history, from 4) was 3 and the “VAS pain level after as-needed medication” value (osteoarthritis; Case 1, history, used when pain level reaches 4) was 3.

For COc1cc(CNC(=O)CCCC/C=C/C(C)C)ccc1O [Capsaicin, capsaicin], the Solubility ([1]; control, no diblock copolymer) was 10 µg/mL (≈ 32.7 µM), the Solubility [1, 7] was 506 µg/mL (≈ 1660 µM) and the “Preparation of homogenous CMC gel” value ([3]; with PCL25) was “allowed”. For the same compound, the “Preparation of homogenous CMC gel” value ([3]; without diblock copolymer) was “not possible to prepare homogenous CMC gel preparations” and the Skin permeation ([4]; CMC gel with PCL25 vs identical capsaicin content in Glaxal base) was “enhanced skin permeation”.
